What was measured:
[1] = tested on: Mycosphaerella graminicola (Septoria tritici, SEPTTR); experiment: microbe, parasite or virus in culture; type: cell-based; settings: Zymoseptoria tritici, read-out: T11 SEPTTR in vitro Growth Inhibition
[2] = tested on: Leptosphaeria nodorum (LEPTNO); experiment: Glume Blotch of Wheat, whole plant 24 Hour Protectant (T2); settings: Parastagonospora nodorum; wheat (cultivar Yuma), sprayed at 100 ppm, inoculated after 24 hours; read-out: T2 LEPTNO in vivo 1 Day Protectant, control of fungal infection
[3] = tested on: Magnaporthe grisea (Pyricularia oryzae, PYRIOR); experiment: microbe, parasite or virus in culture; type: cell-based; settings: read-out: T9 PYRIOR in vitro Growth Inhibition
[4] = tested on: Ustilago maydis (USTIMA); experiment: microbe, parasite or virus in culture; type: cell-based; settings: Mycosarcoma maydis, read-out: T12 USTIMA in vitro Growth Inhibition
[5] = tested on: Erysiphe graminis (ERYSGT); experiment: Powdery Mildew of Wheat, whole plant 24 Hour Protectant (T1); settings: Blumeria graminis, in Triticum aestivum, read-out: T1 ERYSGT in vivo 1 Day Protectant, control of fungal infection
[6] = tested on: Stagonospora nodorum (Leptosphaeria nodorum, LEPTNO); experiment: microbe, parasite or virus in culture; type: cell-based; settings: Parastagonospora nodorum, read-out: T7 LEPTNO in vitro Growth Inhibition
[7] = tested on: Septoria tritici (SEPTTR); experiment: Leaf Blotch of Wheat, whole plant 24 Hour Protectant (T6); settings: Zymoseptoria tritici; wheat (cultivar Monon), sprayed at 100 ppm, inoculated after 24 hours; read-out: T6 SEPTTR in vivo 1 Day Protectant, control of fungal infection
[8] = tested on: Phytophthora infestans (PHYTIN); experiment: microbe, parasite or virus in culture; type: cell-based; settings: in Secale cereale, read-out: T8 PHYTIN in vitro Growth Inhibition
[9] = tested on: Rhizoctonia solani (RHIZSO); experiment: microbe, parasite or virus in culture; type: cell-based; settings: read-out: T10 RHIZSO in vitro Growth Inhibition
[10] = tested on: Phytophthora infestans (PHYTIN); experiment: whole plant or invertebrate; settings: in Solanum lycopersicum, 24 h, read-out: T3 PHYTIN in vivo 1 Day Protectant, control of fungal infection
[11] = tested on: Puccinia recondita (PUCCRT); experiment: Brown Rust of Wheat, whole plant 24 Hour Protectant (T5); settings: wheat (cultivar Yuma), sprayed at 100 ppm, inoculated after 24 hours, read-out: T5 PUCCRT in vivo 1 Day Protectant, control of fungal infection

Structure (SMILES)	inhibition at 25 ppm [1] [%]	pest or weed control at 100 ppm [2] [%]	inhibition at 25 ppm [3] [%]	inhibition at 25 ppm [4] [%]	pest or weed control at 100 ppm [5] [%]	inhibition at 25 ppm [6] [%]	melting point [°C]	pest or weed control at 100 ppm [7] [%]	inhibition at 25 ppm [8] [%]	inhibition at 25 ppm [9] [%]	pest or weed control at 100 ppm [10] [%]	pest or weed control at 100 ppm [11] [%]
COC(=O)OCOc1c(OC)ccnc1C(=O)N[C@H]1COC(=O)[C@H](Cc2ccccc2)[C@@H](OC(=O)C(C)C)[C@H](C)OC1=O [Compound 44]	> 80	75 to 100	< 80	< 80	25 to 74	> 80	140 to 144	75 to 100	< 80	< 80	< 25	75 to 100
COc1ccnc(C(=O)N[C@H]2COC(=O)[C@H](Cc3ccccc3)[C@@H](OCC(C)C)[C@H](C)OC2=O)c1OCOC(C)=O [Compound 49]	> 80	75 to 100	> 80	< 80	75 to 100	> 80	130 to 131	75 to 100	< 80	< 80	25 to 74	75 to 100
COc1ccnc(C(=O)N[C@H]2COC(=O)[C@H](Cc3ccccc3)[C@@H](OC3CCCC3)[C@H](C)OC2=O)c1OCOC(C)=O [Compound 50]	< 80	75 to 100	> 80	< 80	25 to 74	> 80	130 to 132	75 to 100	< 80	< 80	25 to 74	75 to 100
